# Reference: PubChem BioAssay (NCI)
# Several values for one entry are separate records, joined by “and”; a condition that tells them apart may be missing. Identical values can stand only once.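 In this assay, cells in 96-well plates receive the compound at five concentrations for 48 hours. Endpoints are linearly interpolated between the surrounding concentrations. GI50: concentration for 50% inhibition of growth. The concentration for full growth arrest is given as TGI.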
# Legend:
# Test in all cases: NCI-60 cell line screen, 48 h
# 786-0 renal = test system: 786-0 renal
# A498 renal = test system: A498 renal
# A549 NSCLC = test system: A549 NSCLC
# ACHN renal = test system: ACHN renal
# BT-549 breast = test system: BT-549 breast
# CAKI-1 renal = test system: CAKI-1 renal
# CCRF-CEM leukemia = test system: CCRF-CEM leukemia
# DU-145 prostate = test system: DU-145 prostate
# EKVX NSCLC = test system: EKVX NSCLC
# HCC-2998 colon = test system: HCC-2998 colon
# HCT-15 colon = test system: HCT-15 colon
# HOP-62 NSCLC = test system: HOP-62 NSCLC
# HOP-92 NSCLC = test system: HOP-92 NSCLC
# HT29 colon = test system: HT29 colon
# IGROV1 ovarian = test system: IGROV1 ovarian
# K-562 leukemia = test system: K-562 leukemia
# LOX IMVI melanoma = test system: LOX IMVI melanoma
# M14 melanoma = test system: M14 melanoma
# MALME-3M melanoma = test system: MALME-3M melanoma
# MDA-MB-231 breast = test system: MDA-MB-231 breast
# MDA-MB-435 = test system: MDA-MB-435
# MDA-N = test system: MDA-N
# MOLT-4 leukemia = test system: MOLT-4 leukemia
# NCI-H23 lung = test system: NCI-H23 lung
# NCI-H460 lung = test system: NCI-H460 lung
# NCI-H522 lung = test system: NCI-H522 lung
# NCI/ADR-RES ovarian = test system: NCI/ADR-RES ovarian
# OVCAR-3 ovarian = test system: OVCAR-3 ovarian
# OVCAR-4 ovarian = test system: OVCAR-4 ovarian
# OVCAR-5 ovarian = test system: OVCAR-5 ovarian
# OVCAR-8 ovarian = test system: OVCAR-8 ovarian
# PC-3 prostate = test system: PC-3 prostate
# RPMI-8226 leukemia = test system: RPMI-8226 leukemia
# SF-268 CNS = test system: SF-268 CNS
# SF-295 CNS = test system: SF-295 CNS
# SF-539 CNS = test system: SF-539 CNS
# SK-MEL-28 melanoma = test system: SK-MEL-28 melanoma
# SK-MEL-5 melanoma = test system: SK-MEL-5 melanoma
# SK-OV-3 ovarian = test system: SK-OV-3 ovarian
# SN12C renal = test system: SN12C renal
# SNB-19 CNS = test system: SNB-19 CNS
# SNB-75 CNS = test system: SNB-75 CNS
# SR leukemia = test system: SR leukemia
# SW-620 colon = test system: SW-620 colon
# T-47D breast = test system: T-47D breast
# TK-10 renal = test system: TK-10 renal
# U251 CNS = test system: U251 CNS
# UACC-257 melanoma = test system: UACC-257 melanoma
# UACC-62 melanoma = test system: UACC-62 melanoma
# UO-31 renal = test system: UO-31 renal
# COLO 205 colon = test system: COLO 205 colon
# HCT-116 colon = test system: HCT-116 colon
# HL-60(TB) leukemia = test system: HL-60(TB) leukemia
# HS 578T breast = test system: HS 578T breast
# KM12 colon = test system: KM12 colon
# MCF7 breast = test system: MCF7 breast
# NCI-H226 lung = test system: NCI-H226 lung
# RXF 393 renal = test system: RXF 393 renal
# SK-MEL-2 melanoma = test system: SK-MEL-2 melanoma
smiles,measurement,setting,value
CCC(C)C1NC(=O)C(NC(=O)C(CC(C)C)N(C)C(=O)[C@@H]2C=CCN2C(=O)[C@H](C)O)C(C)OC(=O)[C@H](Cc2ccc(OC)cc2)N(C)C(=O)[C@@H]2CCCN2C(=O)[C@H](CC(C)C)NC(=O)C(C)C(=O)[C@H](C(C)C)OC(=O)CC1O (some centres not stated),TGI,786-0 renal,13.5 nM and 10.5 nM
same,TGI,A498 renal,47.1 nM and 48.1 nM
same,TGI,A549 NSCLC,13.1 nM
same,TGI,ACHN renal,51.3 nM
same,TGI,BT-549 breast,15.3 nM
same,TGI,CAKI-1 renal,160 nM
same,TGI,CCRF-CEM leukemia,11.4 nM
same,TGI,DU-145 prostate,31.7 nM
same,TGI,EKVX NSCLC,34.5 nM
same,TGI,HCC-2998 colon,14.7 nM
same,TGI,HCT-15 colon,111 nM
same,TGI,HOP-62 NSCLC,17.7 nM
same,TGI,HOP-92 NSCLC,38.2 nM
same,TGI,HT29 colon,33.5 nM and 15.5 nM
same,TGI,IGROV1 ovarian,19.3 nM
same,TGI,K-562 leukemia,11.6 nM and 10.4 nM
same,TGI,LOX IMVI melanoma,10.5 nM
same,TGI,M14 melanoma,12.3 nM
same,TGI,MALME-3M melanoma,13.4 nM
same,TGI,MDA-MB-231 breast,35.1 nM and 94.3 nM
same,TGI,MDA-MB-435,13.2 nM
same,TGI,MDA-N,18.8 nM
same,TGI,MOLT-4 leukemia,8.05 nM
same,TGI,NCI-H23 lung,9.17 nM
same,TGI,NCI-H460 lung,12.5 nM and 22.7 nM
same,TGI,NCI-H522 lung,10.8 nM
same,GI50,NCI/ADR-RES ovarian,59.4 nM
same,TGI,NCI/ADR-RES ovarian,11700 nM
same,TGI,OVCAR-3 ovarian,28.2 nM and 11.2 nM
same,TGI,OVCAR-4 ovarian,8.81 nM and 11.2 nM
same,TGI,OVCAR-5 ovarian,73.8 nM
same,TGI,OVCAR-8 ovarian,38.6 nM
same,TGI,PC-3 prostate,27.1 nM
same,TGI,RPMI-8226 leukemia,20.1 nM
same,TGI,SF-268 CNS,10.9 nM and 18.6 nM
same,TGI,SF-295 CNS,20 nM
same,TGI,SF-539 CNS,4.67 nM
same,TGI,SK-MEL-28 melanoma,5.67 nM
same,TGI,SK-MEL-5 melanoma,10.2 nM
same,TGI,SK-OV-3 ovarian,31.7 nM
same,TGI,SN12C renal,15 nM
same,TGI,SNB-19 CNS,55.6 nM
same,TGI,SNB-75 CNS,12.6 nM
same,TGI,SR leukemia,> 100000 nM
same,TGI,SW-620 colon,54.5 nM
same,TGI,T-47D breast,10.9 nM
same,TGI,TK-10 renal,68.2 nM and 24.6 nM
same,TGI,U251 CNS,18 nM
same,TGI,UACC-257 melanoma,15.6 nM and 13.4 nM
same,TGI,UACC-62 melanoma,5 nM
same,TGI,UO-31 renal,62.6 nM and 406 nM
Cn1cc(-c2csc(-c3c[nH]c4ccccc34)n2)c2cccnc21,GI50,786-0 renal,2660 nM
same,TGI,786-0 renal,> 91100 nM
same,GI50,A498 renal,688 nM
same,TGI,A498 renal,46600 nM
same,GI50,A549 NSCLC,656 nM
same,TGI,A549 NSCLC,> 64400 nM
same,GI50,ACHN renal,970 nM
same,TGI,ACHN renal,> 100000 nM
same,GI50,BT-549 breast,1160 nM
same,TGI,BT-549 breast,38700 nM
same,GI50,CAKI-1 renal,291 nM
same,TGI,CAKI-1 renal,> 37900 nM
same,GI50,CCRF-CEM leukemia,534 nM
same,TGI,CCRF-CEM leukemia,> 100000 nM
same,GI50,COLO 205 colon,431 nM
same,TGI,COLO 205 colon,6980 nM
same,GI50,DU-145 prostate,1050 nM
same,TGI,DU-145 prostate,34400 nM
same,GI50,EKVX NSCLC,636 nM
same,TGI,EKVX NSCLC,> 40500 nM
same,GI50,HCC-2998 colon,1270 nM
same,TGI,HCC-2998 colon,> 100000 nM
same,GI50,HCT-116 colon,363 nM
same,TGI,HCT-116 colon,> 100000 nM
same,GI50,HCT-15 colon,503 nM
same,TGI,HCT-15 colon,> 100000 nM
same,GI50,HL-60(TB) leukemia,343 nM
same,TGI,HL-60(TB) leukemia,> 100000 nM
same,GI50,HOP-62 NSCLC,718 nM
same,TGI,HOP-62 NSCLC,27000 nM
same,GI50,HOP-92 NSCLC,915 nM
same,TGI,HOP-92 NSCLC,14100 nM
same,GI50,HS 578T breast,5900 nM
same,TGI,HS 578T breast,> 100000 nM
same,GI50,HT29 colon,324 nM
same,TGI,HT29 colon,1720 nM
same,GI50,IGROV1 ovarian,308 nM
same,TGI,IGROV1 ovarian,22900 nM
same,GI50,K-562 leukemia,232 nM
same,TGI,K-562 leukemia,> 100000 nM
same,GI50,KM12 colon,413 nM
same,TGI,KM12 colon,77200 nM
same,GI50,LOX IMVI melanoma,537 nM
same,TGI,LOX IMVI melanoma,> 100000 nM
same,GI50,M14 melanoma,356 nM
same,TGI,M14 melanoma,> 100000 nM
same,GI50,MALME-3M melanoma,215 nM
same,TGI,MALME-3M melanoma,16200 nM
same,GI50,MCF7 breast,1070 nM
same,TGI,MCF7 breast,> 100000 nM
same,GI50,MDA-MB-231 breast,1330 nM
same,TGI,MDA-MB-231 breast,86200 nM
same,GI50,MDA-MB-435,80.4 nM
same,TGI,MDA-MB-435,323 nM
same,GI50,MOLT-4 leukemia,798 nM
same,TGI,MOLT-4 leukemia,> 100000 nM
same,GI50,NCI-H226 lung,2550 nM
same,TGI,NCI-H226 lung,> 66000 nM
same,GI50,NCI-H23 lung,1160 nM
same,TGI,NCI-H23 lung,> 100000 nM
same,GI50,NCI-H460 lung,370 nM
same,TGI,NCI-H460 lung,> 42200 nM
same,GI50,NCI-H522 lung,211 nM
same,TGI,NCI-H522 lung,2010 nM
same,GI50,NCI/ADR-RES ovarian,280 nM
same,TGI,NCI/ADR-RES ovarian,12400 nM
same,GI50,OVCAR-3 ovarian,297 nM
same,TGI,OVCAR-3 ovarian,3000 nM
same,GI50,OVCAR-4 ovarian,2890 nM
same,TGI,OVCAR-4 ovarian,> 100000 nM
same,GI50,OVCAR-5 ovarian,8880 nM
same,TGI,OVCAR-5 ovarian,> 100000 nM
same,GI50,OVCAR-8 ovarian,776 nM
same,TGI,OVCAR-8 ovarian,> 91900 nM
same,GI50,PC-3 prostate,988 nM
same,TGI,PC-3 prostate,> 66700 nM
same,GI50,RPMI-8226 leukemia,1840 nM
same,TGI,RPMI-8226 leukemia,> 100000 nM
same,GI50,RXF 393 renal,1100 nM
same,TGI,RXF 393 renal,9840 nM
same,GI50,SF-268 CNS,813 nM
same,TGI,SF-268 CNS,> 100000 nM
same,GI50,SF-295 CNS,305 nM
same,TGI,SF-295 CNS,6090 nM
same,GI50,SF-539 CNS,655 nM
same,TGI,SF-539 CNS,9050 nM
same,GI50,SK-MEL-2 melanoma,498 nM
same,GI50,SK-MEL-28 melanoma,3120 nM
same,TGI,SK-MEL-28 melanoma,> 100000 nM
same,GI50,SK-MEL-5 melanoma,391 nM
same,TGI,SK-MEL-5 melanoma,11700 nM
same,GI50,SK-OV-3 ovarian,966 nM
same,TGI,SK-OV-3 ovarian,23000 nM
same,GI50,SN12C renal,1470 nM
same,TGI,SN12C renal,> 100000 nM
same,GI50,SNB-19 CNS,825 nM
same,TGI,SNB-19 CNS,> 75100 nM
same,GI50,SNB-75 CNS,542 nM
same,TGI,SNB-75 CNS,4820 nM
same,GI50,SR leukemia,437 nM
same,TGI,SR leukemia,> 100000 nM
same,GI50,SW-620 colon,367 nM
same,TGI,SW-620 colon,> 72500 nM
same,GI50,T-47D breast,783 nM
same,TGI,T-47D breast,> 27500 nM
same,GI50,TK-10 renal,1560 nM
same,TGI,TK-10 renal,18100 nM
same,GI50,U251 CNS,415 nM
same,TGI,U251 CNS,16200 nM
same,GI50,UACC-257 melanoma,1650 nM
same,TGI,UACC-257 melanoma,> 90300 nM
same,GI50,UACC-62 melanoma,448 nM
same,TGI,UACC-62 melanoma,> 100000 nM
same,GI50,UO-31 renal,523 nM
same,TGI,UO-31 renal,> 44100 nM
[NH-]c1ncnc2c1N=C[N+]2=CC=CCO,TGI,MDA-N,> 100000 nM
